# Test results published in patent US20240327456A1, “CANCER THERAPEUTICS” (UNIVERSITAT DE BARCELONA, priority 2021, published 2024).
# Square brackets hold non-standard residues; d marks the D form. Peptide text beside a SMILES is read from it. * marks the point of attachment. Chg = N[CH](C(=O)O)C1CCCCC1; X1 = C1CCC2(CC1)CCN(*)CC2; PhAc = O=C(Cc1ccccc1)*
# Legend:
# [1] = Solubility in PBS with 15% β-cyclodextrin; assay type: physicochemical; conditions: 1 mM, 24 hours agitation, supernatant by HPLC; mean±SD
# Description: xxxxx Furthermore, an additional effort was done to reevaluate those peptidomimetics from the first generation that were not soluble in the in vitro assay conditions or formed aggregates as described above when incubated with the RPE cells.
# We then put these peptidomimetics under constant agitation for 24 hours. […] Data are expressed as the mean±SD.
# [2] = Solubility when diluted in cell medium (in vitro assay conditions); conditions: cell culture assay conditions
smiles,measurement,setting,value
CC(C)CC(NC(=O)C(Cc1c[nH]c2ccccc12)NC(=O)C(NC(=O)C(CCCCN)NC(=O)Cc1ccccc1)C1CCCCC1)C(=O)N1CCC2(CCCCC2)CC1 (centres unmarked) [IP-14-06] (PhAc-K[Chg]WL-X1; configuration not given here),Conc. in PBS β-cyclodextrin 15%,[1],844 ± 4 µM
same,Solubility when diluted in cell medium,[2],not soluble
